Test results: patent publication US5354747A, “2-, 3-, 4-, 5-, 6-, 7-, 8-, 9- and/or 10-substituted dibenzoxazepine and dibenzthiazepine compounds, pharmaceutical compositions and methods of use” (G. D. Searle & Co., priority 1993, dated 1994)
Structures can show the parent of a compound that is named as a salt.

How the values were obtained:
[1] = tested on: prostaglandin E2 -induced contractions of segments of guinea pig ileum; assay: Prostaglandin (PGE) Antagonism Assay; type: cell-based; settings: dose ratio of prostaglandin E2 EC50 doses with/without test compound, initial concentration 3 micromolar
Description: In order to determine the effectiveness of several of the compounds of the present invention ("test compounds") as prostaglandin E2 antagonists,a prostaglandin antagonism assay was conducted, as described below, to determine the ability of these compounds to inhibit prostaglandin E2 -induced contractions of segments of guinea pig ileum. […] Male albino guinea pigs weighing 200 to 500 grams were sacrificed by cervical dislocation. The ilea were then quickly removed from the guinea pigs and placed in a modified Tyrode solution, a solution which is known to those skilled in the art, containing one-half of the usual amount of magnesium ions. Segments of ileum about 2 cm long were then cut and mounted in a 10-mL tissue bath containing the modified Tyrode solution. The solution was maintained at 37° C. and aerated with a gaseous mixture of 95% oxygen and 5% carbon dioxide. Data for a control prostaglandin E2 dose response curve plotting concentration of prostaglandin E2 versus the intensity of contractions, detected isotonically, was then obtained by experimentally adjusting the dose of the prostaglandin E2 being injected into the tissue bath, in a manner known by those of skill in the art. Solutions or suspensions containing an initial concentration (3 micromolar) of a test compound in modified Tyrode solution ("test solutions/suspensions") were then separately substituted for the control bath solution. Each test solution/suspension was then kept in constant contact with the ileum tissue, except for brief periods to drain the bath in preparation for rinsing with fresh test solution/suspension. A second prostaglandin E2 dose response curve was then generated for prostaglandin E2 in the presence of a test compound. A dose ratio (DR) of EC50 doses was then calculated from the results of each test in a manner known by those of skill in the art. A control dose response curve (DRC) is produced in isolated segments of guinea pig ileum mounted in an automated apparatus with six concentrations of prostaglandin E2. A solution or suspension of test compound is substituted for the control bathing solution and is incubated for thirty minutes. An additional prostaglandin E2 dose response curve is produced in the presence of the test compound. A dose ratio is calculated from the EC50 values obtained from duplicate replications on each concentration of the test compound. […] The results of this prostaglandin antagonism assay are presented in Table 2 below in terms of their dose ratio. The compounds of the present invention which were tested in this assay, and for which results are presented in Table 2, correspond to the particular examples specified in Table 2.

[2] = tested on: Charles River male albino mice; assay: Writhing Assay (PBQ-induced writhing, analgesic activity); type: in vivo; settings: Intragastric; for responders at 30 mg/kg / ED50: Mus musculus, po; for responders at 30 mg/kg: 25 min, read-out: number of mice out of nine or ten in which a test compound produced analgesia (converted); for ED50: PBQ writhing, mice, maximum likelihood function, read-out: calculated ED50 value (dose which produced analgesia in 50% of the mice)
Excerpt: The Writhing Assay is one of the most widely-used experimental procedures for measuring the analgesic activity of different narcotic and nonnarcotic analgesic agents, and involves the continuous, chemically-induced pain of visceral origin to an animal, such as a mouse or rat. [Gyires et al., Arch. int. Pharmacodyn, 267, 131-140 (1984); […] al., Fed. Proc., 15, 494 (1956); Koster et al., Fed. Proc., 18, 412 (1959); and Witken et al., J. Pharmacol. exp. Ther., 133, 400-408 (1961).] Chemicals which may be used to induce this pain include phenylbenzoquinone (PBQ) and acetic acid. As a result of the chemical irritation to the animal, a characteristic stretching and writhing of the animal (dorsiflexion of the animal's back, extension of its hindlimbs and the strong contraction of its abdominal musculature) will generally occur. […] Drugs which reduce the number of writhes of the animal appear to restore the normal nociceptive threshold of the animal. Charles River male albino mice, weighing 20 to 30 grams were used in this assay. Twenty-five minutes after intragastric administration to nine or ten mice of 30 mg per kilogram of body weight of a compound of the present invention ("test compound"), […] of body weight of a 0.025% w/v solution of PBQ was injected intraperitoneally into each mouse. Ten mice which were given saline in place of a test compound of the invention were used as a control group. Five minutes later, each mouse was individually placed into a glass beaker for observation, and the number of writhes occurring during the following ten-minute period was counted. A test compound was considered to have produced analgesia in a mouse if, in accordance with the conditions set forth above, and under the test criteria employed for this assay, after the administration of 30 mg per kilogram of body weight of a compound of the present invention to the mouse, the number of writhes elicited by a mouse injected with PBQ was equal to, or less than, one-half the median number of writhes recorded for the saline-treated control group of mice that day, as described by Taber in "Predictive Value of Analgesic Assays in Mice and Rats," Advances in Biochemical Psychopharmacology, 8, 191 (1974). […] If this initial screening dose of the test compound produced analgesia in seven of nine or ten mice, then the effect of additional doses of the test compound on the writhing response was evaluated, and then the ED50 value (that dose of a compound which produced analgesia in 50% of the mice to which the compound was administered) was generally calculated. A maximum likelihood function was used to determine the ED50 value. (The slopes of the dose-response curves for all test compounds analyzed were compared as described by Tallarida and Murray, Manual of Pharmacologic Calculations, Page 11 (Springer Verlag, New York, 1981)). The results for the particular compounds of the present invention analyzed in this assay, and discussed in the examples identified below which correspond thereto, are presented in Table 1 hereinbelow. The compounds of the present invention which were tested in this assay, and for which results are presented in Table 1, correspond to the particular examples specified in Table 1. The fractions indicate the number of mice out of nine or ten in which a test compound produced analgesia, and the whole numbers are the calculated ED50 values.

[3] = 30 mg per kilogram of body weight 25 min before PBQ i.p., writhes equal to or less than one-half the control median

O=C(Cc1ccncc1)N1CCN(C(=O)N2Cc3ccccc3Oc3ccc(Cl)cc32)CC1 [Example 79, 1-[(8-Chlorodibenz[b,f][1,4]oxozepin-10(11H)-yl)carbonyl]-4-[1-oxo-2(4-pyridinyl)-ethyl]piperazine, monohydrochloride, monohydrate]
Dose Ratio [1]: 10

O=C(N1CCNCC1)N1Cc2ccccc2Oc2ccc(Cl)cc21 [Example 25, 8-chloro-10,11-dihydro-10-(1-piperazinylcarbonyl)dibenz[b,f][1,4]oxazepine, monohydrochloride]
responders at 30 mg/kg [2, 3]: 50%
Dose Ratio [1]: 1.6

CCCCCCCCCCN1CCN(C(=O)N2Cc3ccccc3Oc3ccc(Cl)cc32)CC1.Cl [Example 15, 8-chloro-10-[(4-decyl-1-piperazinyl)carbonyl]-10,11-dihydrodibenz[b,f][1,4]oxazepine, monohydrochloride]
ED50 [2]: 6.4 mg/kg
Dose Ratio [1]: 2.1

Cl.O=C(N1CCN(Cc2ccco2)CC1)N1Cc2ccccc2Oc2ccc(Cl)cc21 [Example 65, 8-chloro-10-[[4-(2-furanylmethyl)-1-piperazinyl]carbonyl]-10,11-dihydrodibenz[b,f][1,4]oxazepine, monohydrochloride]
responders at 30 mg/kg [2, 3]: 40%
Dose Ratio [1]: 8.4

CCOC(=O)C1CN(C(=O)N2Cc3ccccc3Oc3ccc(Cl)cc32)CCN1c1ccccc1 (centres unmarked) [Example 50, ethyl 4-[(8-chlorodibenz[b,f][1,4]oxazepin-10(11H)-yl)carbonyl]-1-phenyl-2-piperazinecarboxylate]
Dose Ratio [1]: 2.7

O=C(N1Cc2ccccc2Oc2ccc(Cl)cc21)N1CCCCC1CCN1CCCC1 (centres unmarked) [Example 49, 8-chloro-10,11-dihydro-10-[[2-[2-(1-pyrrolidinyl)ethyl]-1-piperidinyl]carbonyl]dibenz[b,f][1,4]oxazepine, hydrochloride]
responders at 30 mg/kg [2, 3]: 20%

O=C(N1CCC(N2CCCC2)CC1)N1Cc2ccccc2Oc2ccc(Cl)cc21 [Example 34, 8-chloro-10,11-dihydro-10-[[4-(1-pyrrolidinyl)-1-piperidinyl]carbonyl]dibenz[b,f][1,4]oxazepine]
responders at 30 mg/kg [2, 3]: 70%

O=C(N1CCN(CCc2ccccc2)CC1)N1Cc2ccccc2Oc2ccccc21 [Example 41, 10,11-dihydro-10-[[4-(2-phenylethyl)-1-piperazinyl]carbonyl]dibenz[b,f][1,4]oxazepine, monohydrochloride]
responders at 30 mg/kg [2, 3]: 100%
Dose Ratio [1]: 2.6

O=C(c1ccco1)N1CCN(C(=O)N2Cc3ccccc3Oc3ccc(Cl)cc32)CC1 [Example 38, 1-[(8-chlorodibenz[b,f][1,4]oxazepin-10(11H)-yl)carbonyl]-4-(2-furanylcarbonyl)piperazine]
responders at 30 mg/kg [2, 3]: 10%

CCN1CCN(C(=O)N2Cc3ccccc3Oc3ccc(Cl)cc32)CC1.Cl [Example 19, 8-chloro-10-[(4-ethyl-1-piperazinyl)carbonyl]-10,11-dihydrodibenz[b,f][1,4]oxazepine, hydrochloride]
responders at 30 mg/kg [2, 3]: 22.2%
Dose Ratio [1]: 6.0

CC(C)(C)OC(=O)N1CCN(C(=O)N2Cc3ccccc3Oc3ccc(Cl)cc32)CC1 [Example 20, 1,1-dimethylethyl 4-[(8-chlorodibenz[b,f][1,4]oxazepin-10(11H)-yl)carbonyl]-1-piperazinecarboxylate]
responders at 30 mg/kg [2, 3]: 40%
Dose Ratio [1]: 8.0

Cl.O=C(N1CCN(Cc2ccsc2)CC1)N1Cc2ccccc2Oc2ccc(Cl)cc21 [Example 47, 8-chloro-10,11-dihydro-10-[[4-(3-thienylmethyl)-1-piperazinyl]carbonyl]dibenz[b,f][1,4]oxazepine, monohydrochloride]
responders at 30 mg/kg [2, 3]: 70%
Dose Ratio [1]: 2.9

Cl.O=C(N1CCN(Cc2ccccc2)CC1)N1Cc2ccccc2Oc2ccc(Cl)cc21 [Example 7, 8-chloro-10,11-dihydro-10-[[4-(phenylmethyl)-1-piperazinyl]carbonyl]dibenz[b,f][1,4]oxazepine, monohydrochloride]
ED50 [2]: 6.8 mg/kg
Dose Ratio [1]: 5.1

8-chloro-10,11-dihydro-10-[[4-(2-pyridinyl)-1-piperazinyl]carbonyl]dibenz[b,f][1,4]oxazepine, monohydrochloride [Example 11]
number of mice out of nine or ten in which a test compound produced analgesia [2, 3]: 1/10

Cl.O=C(Cc1cccnc1)N1CCN(C(=O)N2Cc3ccccc3Oc3ccc(Cl)cc32)CC1 [Example 56, 1-[(8-chlorodibenz[b,f][1,4]oxazepin-10(11H)-yl)carbonyl]-4-(3-pyridinylacetyl)piperazine, monohydrochloride]
responders at 30 mg/kg [2, 3]: 50%
Dose Ratio [1]: 3.3

Cl.O=C(c1cccnc1)N1CCN(C(=O)N2Cc3ccccc3Oc3ccc(Cl)cc32)CC1 [Example 58, 1-[(8-chlorodibenz[b,f][1,4]oxazepin-10(11H)-yl)carbonyl]-4-(3-pyridinylcarbonyl)piperazine, hydrochloride]
responders at 30 mg/kg [2, 3]: 70%
Dose Ratio [1]: 6.6

CC(C)N1CCN(C(=O)N2Cc3ccccc3Oc3ccc(Cl)cc32)CC1.Cl [Example 22, 8-chloro-10,11-dihydro-10-[[4-(1-methylethyl]-1-piperazinyl]carbonyl]dibenz[b,f][1,4]oxazepine, hydrochloride]
responders at 30 mg/kg [2, 3]: 30%
Dose Ratio [1]: 3.0

Cl.O=C(N1CCC(N2CCCC2)CC1)N1Cc2ccccc2Oc2ccc(Cl)cc21 [Example 35, 8-chloro-10,11-dihydro-10-[[4-(1-pyrrolidinyl)-1-piperidinyl]carbonyl]dibenz[b,f][1,4]oxazepine, hydrochloride]
Dose Ratio [1]: 1.0

Cl.O=C(N1CCN(Cc2cccs2)CC1)N1Cc2ccccc2Oc2ccc(Cl)cc21 [Example 54, 8-chloro-10,11-dihydro-10-[[4-(2-thienylmethyl)-1-piperazinyl]carbonyl]dibenz[b,f][1,4]oxazepine, monohydrochloride]
responders at 30 mg/kg [2, 3]: 60%
Dose Ratio [1]: 2.4

Cl.O=C(Cc1ccncc1)N1CCCN(C(=O)N2Cc3ccccc3Oc3ccc(Cl)cc32)CC1 [Example 81, 1-[(8-chlorodibenz[b,f][1,4]oxazepin-10(11H)-yl)carbonyl]hexahydro-4-(4-pyridinylacetyl)-1H-1,4-diazepine, monohydrochloride]
Dose Ratio [1]: 32
